Entries after “also recorded” stand apart in the source; their conditions may differ.
Experiments:
Raji cells [1] = test: Evaluation of Rituximab sensitivity, complement dependent cytotoxicity (CDC) assay; assay type: cell-based; conditions: sh Cyclon vs sh Ctrl cell lines (Raji, B593, SUDHL4); 1 h, 1 μg/ml Rituximab, 20% human serum
Method: (§1) Non-targeting or CYCLON targeting short hairpin (sh) RNA sequences were designed using the DSIR algorithm (http://biodev.cea.fr/DSIR/DSIR.html). Sequences, provided in Table 1, were cloned into the pLKO-1 lentiviral vector (Addgene) and packaged as described (Levy et al., 2010) or purchased from Santa Cruz. Cells were transduced with lentiviral particles at a MOI of 10. Stable cell lines were established under puromycin selection (1 μg/ml).
(§2) Cells were treated with 1 to 10 μg/ml Rituximab (Roche) or isotype control (Herceptin, Roche) for 24 h for direct apoptosis assays and for 1 h in presence of 20% human serum as a source of complement for CDC assays. Cell viability was evaluated by AnnexinV/IP (Beckman Coulter) or IP staining and flow cytometry analysis (LSIIR, BD). Specific cell death was calculated as (% of cell death with Rituximab−% cell death with Herceptin)/(1−% cell death with Herceptin), n=8 for each cell line.

Raji cells [2] = test: Xenotransplantation assay, Raji shCtrl / shCyclon tumours treated with Rituximab; assay type: in vivo, nude mice; conditions: subcutaneous, daily intraperitoneal 200 μg Rituximab
Method: 3·10^6 Raji cells were injected subcutaneously into the flank of 6 to 8 week-old nude mice as described. Four mice were injected, each of them with shCtrl and shCyclon Raji cells into the right and left flanks respectively. When tumours were palpable (˜[…]), mice were given daily intraperitoneal injections of 200 μg Rituximab. Tumour volume was measured every 2 days using the formula I^2×L×0.52 (n=4 for each group).

Raji cells [3] = test: Evaluation of Rituximab sensitivity, direct apoptosis assay; assay type: cell-based; conditions: sh Cyclon vs sh Ctrl cell lines (Raji, B593, SUDHL4); 24 h, 10 μg/ml Rituximab
Method: as §1, §2

Cyclon = conditions: K562 leukemic cells treated with Imatinib, public data GDS3043; cited from earlier work

Row | Compound | sensitivity of cancer cells through complement dependent cytotoxicity (CDC specific cell death) (Raji cells [1]) | tumour regression, day of treatment (Raji cells [2]; Cyclon-depleted tumours (Raji shCyclon)) | tumour regression, day of treatment (Raji cells [2]; control tumours (Raji shCtrl)) | sensitivity of cancer cells through direct apoptosis (specific cell death) (Raji cells [3]) | Cyclon expression level (Cyclon)
1 | Rituximab | increased sensitivity | ≤ 4 days | 14 days | increased sensitivity | –
2 | Cc1ccc(NC(=O)c2ccc(CN3CCN(C)CC3)cc2)cc1Nc1nccc(-c2cccnc2)n1 [Imatinib] | – | – | – | – | down-regulation of Cyclon; also recorded: reduce Cyclon expression levels

— patent US20150044201A1, “CYCLON EXPRESSION FOR THE IDENTIFICATION AND CONTROL OF CANCER CELLS” (UNIVERSITE JOSEPH FOURIER - GRENOBLE, priority 2012, published 2015)
